The subject of data set [1] is NMDA receptor. Conditions: clinical / human use; cited from earlier work.
Data set [2] relates to MES-induced convulsions in mice. Put plainly: Anticonvulsive activity: maximal electroshock (MES) test. The format is in vivo. Conditions: i.p., Table 8, 30 min. The protocol: (§1) NMR female mice (18-28 g) housed 5 per cage were used for the maximal electroshock (MES) and motor impairment tests. […] All compounds were dissolved in 0.9% saline.
(§2) The MES test was performed together with tests for myorelaxant action (traction reflex) and motor coordination (rotarod). For the traction reflex test mice were placed with their forepaws on a horizontal rod and were required to place all 4 paws on the wire within 10 seconds. To test ataxia (motor coordination) mice were placed on rotarod (5 rpm) and were required to remain on the rod for 1 minute. […] These tests were followed by MES (100 Hz, 0.5 second shock duration, 50 mA shock intensity, 0.9 ms impulse duration, Ugo Basile) applied through corneal electrodes. The presence of tonic convulsions was scored (tonic extension of hind paws with minimum angle to the body of 90°). The aim was to obtain ED50 s for all parameters scored (anticonvulsive activity and motor side effects) with use of the Litchfield Wilcoxon test for quantal dose responses. Division of the ED50 for side effects (ataxia or myorelaxation) by the ED50 for antagonism of electroshock convulsions was used as a therapeutic index (TI).
(§3) Pearson product moment correlation analysis (Sigma Stat, Jandel Scientific) was used to compare in vitro potencies and in vivo anticonvulsant activity.

Data set [3] has as its system traction reflex in mice. The data set can be described thus: Traction reflex test (myorelaxant action). The format is in vivo. Conditions: i.p., Table 8. The protocol:
as §1
as §2, with “(TI). […]” for “(TI).”

For data set [4] the following is noted: i.p.; Table 8.
Data set [5] concerns rotarod performance in mice. The data set can be described thus: Rotarod test (motor coordination, ataxia). The format is in vivo. Conditions: i.p., Table 8. The protocol: (§4) All compounds were dissolved in 0.9% saline.
as §2, §3
A general note: Falling from the rotarod earlier than controls is read as motor impairment.

The test system of data set [6] is cortical neurones. The data set can be described thus: Excitotoxicity: glutamate toxicity in cultured cortical neurones (MTT test). The format is cell-based, rat. Conditions: words. As for the experimental part:
Cortical neurones were obtained from cerebral cortices of 17/18 day old fetal rats (Wistar), in general following the dissociation procedure described by. After short trypsinization and gentle trituration with fire-polished Pasteur pipettes, the cell suspension was washed by centrifugation. Cells were suspended in serum-free Neurobasal medium with B27 supplement (GIBCO) before plating onto poly-L-lysine (Sigma; 0.2mg/ml, 20 h, 4° C.) and laminin (Sigma; 2 μg/ml, 1h, 37° C.)-coated 96-well plates (Falcon, Primaria) at a density of 5×10^4 cells/well. Cortical neurones were maintained at 37° C. in humidified 10% CO2 /90% air. […]
Exposure to EAA was performed in serum-free Neurobasal medium containing 100 μM glutamate and the drug to be tested. After 20 h of incubation, the cytotoxic effect was morphologically examined under a phase contrast microscope and biochemically quantified by measuring cell viability with the MTT test (Promega). […] These samples were then read using an Elisa plate reader (Thermomax, MWG Biotech) at a wavelength of 570 nm. […]
IC50 s in patch clamp, excitotoxicity, and binding studies were calculated according to the four parameter alogistic equation using the Grafit computer program (Erithacus Software, England). Ki value for binding studies were then determined according to Cheng and Prusoff. […]
On the technique in general: Formazan colour is commonly taken as a measure of viable cells.

Data set [7] in a line: Traction reflex test (myorelaxant action). The format is in vivo. The settings on record: mouse, traction reflex versus mes, ip; mice, i.p.; Table 8; read-out: TI Tract. (ED50 traction reflex impairment / ED50 MES). As for the experimental part: as §1
as §2, with “(TI). […]” for “(TI).”

A short description of data set [8]: Rotarod test (motor coordination, ataxia). Conditions: mouse, rotarod versus mes, ip; mice, i.p.; Table 8; read-out: TI Rot. (ED50 rotarod failure / ED50 MES). The format is in vivo. As for the experimental part:
as §4, §2, §3

Data set [9] deals with NMDA receptor. The data set can be described thus: [3H]-(+)-MK-801 receptor binding to rat cortical membranes. The settings on record: read-out: [3H]MK-801 IC50, [3H]-(+)-MK-801 5 nM, Table 7. As for the experimental part:
Male Sprague-Dawley rats (200-250 g) were decapitated and their brains were removed rapidly. The cortex was dissected and homogenized in 20 volumes of ice-cold 0.32 M sucrose using a glass-Teflon homogenizer. The homogenate was centrifuged at 1000×g for 10 minutes. The pellet was discarded and the supernatant centrifuged at 20,000×g for 20 minutes. The resulting pellet was re-suspended in 20 volumes of distilled water and centrifuged for 20 minutes at 8000×g. Then the supernatant and the buffy coat were centrifuged three times (48,000×g for 20 minutes) in the presence of 50 mM Tris-HCl, pH 8.0. All centrifugation steps were carried out at 4° C. After resuspension in 5 volumes of 50 mM Tris-HCl, pH 8.0 the membrane suspension was frozen rapidly at -80° C. On the day of assay the membranes were thawed and washed four times by resuspension in 50 mM Tris-HCl, pH 8.0 and centrifugation at 48,000×g for 20 minutes. The final pellet was suspended in assay buffer. The amount of protein in the final membrane preparation was determined according to the method of Lowry with some modifications. The final protein concentration used for our studies was between 250-500 μg/ml.
Membranes were re-suspended and incubated in 50 mM Tris-HCl, pH 8.0. […] Incubations were terminated using a Millipore filter system. The samples were rinsed three times with 2.5 ml ice cold assay buffer over glass fiber filters obtained from Schleicher & Schuell under a constant vacuum. Filtration was performed as rapidly as possible. Following separation and rinse, the filters were placed into scintillation liquid (5 ml; Ultima Gold) and radioactivity retained on the filters was determined with a conventional liquid scintillation counter (Hewlett Packard, Liquid Scintillation Analyser).
IC50 s in patch clamp, excitotoxicity, and binding studies were calculated according to the four parameter alogistic equation using the Grafit computer program (Erithacus Software, England). Ki value for binding studies were then determined according to Cheng and Prusoff. Binding values presented are means ±SEM of 3-5 determinations (each performed in duplicate).

Data set [10] can be described thus: Solubility (analytical certificates). The format is physicochemical.

Each structure is given as a SMILES string. Where a name gives a salt, the structure may show the parent alone. Some results are limits rather than exact numbers.

With `NC12CC3CC(CC(C3)C1)C2` [Amantadine, reference compound], in [1], the side effects result is “rarely produce side effects at the therapeutic doses”. The “MES ED50” value in [2] was 184.0 mg/kg i.p.
On to `C[C@]12N[C@H](Cc3ccccc31)c1ccccc12` [MK-801, (+)-5-methyl-10,11-dihydro-5H-dibenzocyclohepten-5,10-imine maleate, reference compound], for which the side effects result in [1] was “some psychotropic side effects were apparent at therapeutic doses”. Moreover, in data set [2], the “MES ED50” value is listed as 0.16 mg/kg i.p.
`CC1(C)CC(C)(C)CC(C)(N2CCCC2)C1.Cl` [MRZ 2/705, N-(1,3,3,5,5-Pentamethylcyclohexyl) pyrrolidine hydrochloride]: the “TI Tract. (ED50 traction reflex impairment / ED50 MES)” value in data set [3] is on record as 3.9. The “Min Lethality” value in data set [4] is on record as above 50 mg/kg. For the same compound, the “TI Rot. (ED50 rotarod failure / ED50 MES)” value in data set [5] turned out to be 5.4.
As to `CC12CC3CC(C)(C1)CC(N)(C3)C2` [Memantine, reference compound], the side effects entry in [1] is given as “rarely produce side effects at the therapeutic doses”. In addition, the “TI Tract. (ED50 traction reflex impairment / ED50 MES)” value in [3] turned out to be 2.9.
Take `CC1(C)CC(C)(C)CC(C)(N)C1` [Mrz 2/579, 1-amino-1,3,3,5,5-pentamethylcyclohexane]: the neuroprotection in vitro entry in data set [6] is on record as “most potent”. Also, the selectivity ratio in [7] amounted to 2.9; in data set [8] it was 5. For the same compound, in [4], the “Min Lethality” value is listed as 108 mg/kg.
A word on the IC50: it is the midpoint of a concentration-inhibition curve. `CCC1(N)CC(C)(C)CC(C)(C)C1` [Mrz 2/600, 1-amino-1-ethyl-3,3,5,5-tetramethylcyclohexane]: the selectivity ratio in data set [7] is 0.6; in data set [8], 0.9. The “Min Lethality” value in [4] was determined as 50 mg/kg. Also, the IC50 in [9] is 24 µM.
Consider `CC1CC(C)CC(C)(N)C1` (centres unmarked) [Mrz 2/616, 1-amino-1,3,5-trimethylcyclohexane], for which the selectivity ratio in [7] turned out to be 1; in data set [8], 1.4. In addition, the “Min Lethality” value in data set [4] is reported as above 50 mg/kg. For the same compound, the IC50 in [9] is 150 µM. Further, the Solubility result in data set [10] was “soluble in water, chloroform”.
As to `CC1(C)CCCC(C)(N)C1` (centres unmarked) [Mrz 2/621], in [3], the “TI Tract. (ED50 traction reflex impairment / ED50 MES)” value was determined as 1.8. Moreover, the “Min Lethality” value in data set [4] is listed as above 60 mg/kg. Besides, the “TI Rot. (ED50 rotarod failure / ED50 MES)” value in data set [5] worked out at 1.5. For the same compound, in data set [2], the “MES ED50” value came out at 36.9 mg/kg i.p.

Source of the values: US6071966A, “1-amino-alkylcyclohexane NMDA receptor antagonists” (Merz + Co. GmbH & Co., priority 1998, dated 2000).
